Laboratory results taken from US20250295711A1, “FOOD SUPPLEMENT” (FONTERRA CO-OPERATIVE GROUP LIMITED, priority 2022, published 2025).
Marks after values point to notes of the source that are not given here.

Experiments:
[1] = test system: Corticotropin Releasing Hormone (CRH); experiment: Serum corticotropin releasing hormone content in CUMS rats; type: in vivo, rat; conditions: for Serum Corticotropin Releasing Hormone (CRH) Content, After intervention: after CUMS with intervention; for Serum Corticotropin Releasing Hormone (CRH) Content, After CUMS: before intervention
Method: (§1) A series of experiments were conducted using the chronic unpredictable mild stress (CUMS) rodent model. Rats were exposed daily to any two of the following mild physiological stresses selected at random: • 12 hours of water deprivation • 12 hours of food deprivation • 8 hours of damp sawdust • 24 hours of reversed light/dark cycle • 2 minutes of tail pinching • 1 hour of 60 Hz noise • 15 minutes of cage shaking • Swimming in 4° C. water for 5-10 minutes • 2 hours of restraining.
(§2) Six groups of rats were assessed: • 1. Control rats: rats raised normally without stress treatments and without nutritional or drug interventions. • 2. CUMS rats: rats subjected to the CUMS protocol but without nutritional or drug interventions. • 3. CUMS HN001: rats subjected to the CUMS protocol and given HN001. • 4. CUMS HN019: rats subjected to the CUMS protocol and given HN019. • 5. CUMS HN001+HN019: rats subjected to the CUMS protocol given both HN001 and HN019. • 6.
(§3) Baseline assessments were then conducted, including blood collection. For the next 40 days, rats in groups 2-6 were exposed to CUMS treatments to induce depression symptoms associated with stress and anxiety.

intestinal microbiota = experiment: 16S rRNA sequencing of faecal samples (gut microbiota) of CUMS rats; type: in vivo, rat; conditions: for CUMS-induced alterations of relative abundance at phylum level: Firmicutes, Bacteroidetes, Verrucomicrobias, Proteobacterias, Actinobacterias; for CUMS-induced changes at genus level: Lactobacillus, Eubacterium coprostanoligenes group, Lachnospiraceae-NK4A136-group; for CUMS-induced changes of relative abundance at family level: Ruminococcaceae, Lactobacillaceae, Lachnospiraceae; for Sobs, ACE, Chao1 and Shannon index (alpha-diversity): compared with CUMS group, FIG. 9; for Beta diversity, PCoA plot: in comparison with CUMS rats, FIG. 10A; for Firmicutes to Bacteroidetes ratio (F/B ratio): increased after CUMS stimulation
Method: To evaluate whether probiotics, as well as CUMS, alter intestinal microbiota, 16S rRNA sequencing of faecal samples was performed. Alpha-diversity, as measured by richness (Sobs index, Chao1 index and ACE index; see FIGS. […]), and diversity (Shannon index; see FIG. 9 D), was decreased after CUMS. Beta diversity analysis was evaluated through PCoA to assess differences in microbial composition among six groups (FIG. 10A).

IL-6 = IL-6 content in serum, brain and colon of CUMS rats; type: in vivo, rat; conditions: for IL-6 Content, Brain / IL-6 Content, Colon: end of experiment; for IL-6 Content, serum-after intervention: after CUMS with intervention; for IL-6 Content, serum-after CUMS: before intervention
Method: as §1, §2, §3
(§4) A series of blood markers were assessed.

[2] = Body weight gain of CUMS rats; type: in vivo, rat; conditions: FIG. 3
Method: as §1, §2, §3
The reduced weight gain in rats exposed to CUMS was improved by administration of HN001, HN019, or both (FIG. 3). Also, there were no differences in weight gain between CUMS groups.

CUMS rats [3] = experiment: Elevated-plus maze test in CUMS rats; type: in vivo, rat; conditions: for Time in Closed Arms in Elevated Plus Maze, After intervention (x ± S) / Total Distance Travelled in Elevated Maze Test, After intervention (x ± S): after CUMS with intervention; for Time in Closed Arms in Elevated Plus Maze, After CUMS (x ± S) / Total Distance Travelled in Elevated Maze Test, After CUMS (x ± S): before intervention; for Time in Closed Arms in Elevated Plus Maze, Base line (x ± S) / Total Distance Travelled in Elevated Maze Test, Base line (x ± S): before CUMS and before intervention
Method: as §1, §2, §3
(§5) Tests were then carried out to assess rat behaviours, such as the open field test and the elevated maze test (see FIG. 2). These are standard ways to measure rat stress and anxiety traits.

[4] = test system: 5-HT, DA, NE, Glu, GABA, HIAA, DOPAC, HVA; experiment: Neurotransmitters and their metabolites in serum and brain of CUMS rats; type: in vivo, rat; conditions: FIG. 6
Source text: The level of serum and brain 5-HT, DA, NE, Glu and GABA were detected at the end of the experiment (A, B, D, E, G, H, J, K, L). (C), (F) and (I) show the metabolites of monoamine neurotransmitters in brain. The results are presented as the mean±SEM (n=10). #P<0.05 compared with CUMS group.
HIAA, DOPAC and HVA, as the metabolites of 5-HT, DA and NE, were increased in rat brains after CUMS stimulation.

TNF-α = TNF-α content in serum, brain and colon of CUMS rats; type: in vivo, rat; conditions: for TNF-α Content, Brain / TNF-α Content, Colon: end of experiment; for TNF-α Content, serum-after intervention: after CUMS with intervention; for TNF-α Content, serum-after CUMS: before intervention
Method: as §1, §2, §3, §4

[5] = test system: Adrenocorticotropic Hormone (ACTH); experiment: Serum adrenocorticotropic hormone content in CUMS rats; type: in vivo, rat; conditions: for Serum Adrenocorticotropic Hormone (ACTH) Content, After intervention: after CUMS with intervention; for Serum Adrenocorticotropic Hormone (ACTH) Content, After CUMS: before intervention
Method: as §1, §2, §3

brain and colon tissue = experiment: HE staining of brain and colon tissues of CUMS rats; type: in vivo, rat; conditions: brain, FIG. 5
Source text: Brain tissues included two regions from the hippocampus (Dentate Gyrus (DG) and CA1) and a region from the cortex (P2).
Brain and colon tissue were stained using the HE method. Brain tissue included two regions from the hippocampus (Dentate Gyrus (DG) and CA1) and a region from the cortex (P2). The results are shown in FIG. 5 and reveal that for the control group, neurons in hippocampal regions (dentate gyrus (DG) and Ca1) and the cortex (P2) were normal, orderly, tightly packed cells. The cells had expected morphology, homogeneous cytoplasmic staining, and no increased interstitial or abnormal changes.
For the colon tissue, control intestinal villi were arranged neatly, with normal cell morphology and no obvious damage was seen.

Cortisol = Cortisol (HPA axis) after stress; type: in vivo; conditions: stress induced; no data shown
CUMS rats [6] = experiment: Open field test in CUMS (chronic unpredictable mild stress) rats; type: in vivo, rat; conditions: for Total Distance Travelled in Open Field Test, After CUMS only (x ± S): after 40 days CUMS; for Total Distance Travelled in Open Field Test, After CUMS only (x ± S) / Vertical Movement (Number of Times Standing Up) in Open Field Test, After CUMS (x ± S): before intervention; for Vertical Movement (Number of Times Standing Up) in Open Field Test, After intervention (x ± S): after CUMS with intervention; for Total Distance Travelled in Open Field Test, After CUMS + intervention (x ± S): after further 40 days CUMS with intervention; for Total Distance Travelled in Open Field Test, Base line (x ± S) / Vertical Movement (Number of Times Standing Up) in Open Field Test, Base line (x ± S): before CUMS and before intervention
Method: as §1, §2, §3, §5

Substance	Serum Corticotropin Releasing Hormone (CRH) Content, After intervention [1]	Serum Corticotropin Releasing Hormone (CRH) Content, After CUMS [1]	CUMS-induced alterations of relative abundance at phylum level (intestinal microbiota)	CUMS-induced changes at genus level (intestinal microbiota)	CUMS-induced changes of relative abundance at family level (intestinal microbiota)	Sobs, ACE, Chao1 and Shannon index (alpha-diversity) (intestinal microbiota)	Beta diversity, PCoA plot (intestinal microbiota)	Firmicutes to Bacteroidetes ratio (F/B ratio) (intestinal microbiota)	IL-6 Content, Brain (IL-6)	IL-6 Content, Colon (IL-6)	IL-6 Content, serum-after intervention (IL-6)	IL-6 Content, serum-after CUMS (IL-6)	Reduced weight gain in rats exposed to CUMS [2]	Time in Closed Arms in Elevated Plus Maze, After intervention (x ± S) (CUMS rats [3])	Total Distance Travelled in Elevated Maze Test, After intervention (x ± S) (CUMS rats [3])	Time in Closed Arms in Elevated Plus Maze, After CUMS (x ± S) (CUMS rats [3])	Total Distance Travelled in Elevated Maze Test, After CUMS (x ± S) (CUMS rats [3])	Time in Closed Arms in Elevated Plus Maze, Base line (x ± S) (CUMS rats [3]) [s]	Total Distance Travelled in Elevated Maze Test, Base line (x ± S) (CUMS rats [3]) [Metres]	Effects of CUMS on neurotransmitters (5-HT, DA, NE, Glu, GABA) and metabolites [4]	further results
Bifidobacterium animalis subsp. lactis strain HN019	2.47 ± 1.34^b pg/ml	5.19 ± 3.48^a pg/ml	alleviated the phylum alterations	improved	reversed the changes of family	decreased	marked differences	decreased the F/B ratio	19.25 ± 4.78^b pg/ml	31.88 ± 7.83^b pg/ml	10.19 ± 4.47^b pg/ml	13.08 ± 4.30^a pg/ml	improved	215.28 ± 17.98^b Seconds	7.91 ± 0.65^b Metres	288.83 ± 11.57^a Seconds	3.08 ± 2.21^a Metres	215.83 ± 23.30	9.35 ± 1.38	able to reverse the effects of CUMS	TNF-α Content, Brain (TNF-α): 60.67 ± 6.65^b pg/ml; TNF-α Content, Colon (TNF-α): 71.34 ± 10.46^b pg/ml; TNF-α Content, serum-after intervention (TNF-α): 12.08 ± 3.68^b pg/ml; TNF-α Content, serum-after CUMS (TNF-α): 23.97 ± 3.69^a pg/ml; Serum Adrenocorticotropic Hormone (ACTH) Content, After intervention [5]: 2.13 ± 1.88^b pg/ml; Serum Adrenocorticotropic Hormone (ACTH) Content, After CUMS [5]: 5.53 ± 3.43^a pg/ml; Morphology of hippocampus (DG, CA1) and cortex (P2) (brain and colon tissue): CUMS-associated damage was largely reduced; Cortisol level (Cortisol): reduced closer to non-stressed control levels; Total Distance Travelled in Open Field Test, After CUMS only (x ± S) (CUMS rats [6]): 5.42 ± 3.11^a Metres; Vertical Movement (Number of Times Standing Up) in Open Field Test, After intervention (x ± S) (CUMS rats [6]): 11.63 ± 4.90^b; Vertical Movement (Number of Times Standing Up) in Open Field Test, After CUMS (x ± S) (CUMS rats [6]): 4.50 ± 3.42^a; Total Distance Travelled in Open Field Test, After CUMS + intervention (x ± S) (CUMS rats [6]): 12.21 ± 2.54^b Metres; Total Distance Travelled in Open Field Test, Base line (x ± S) (CUMS rats [6]): 24.65 ± 3.59 Metres; Vertical Movement (Number of Times Standing Up) in Open Field Test, Base line (x ± S) (CUMS rats [6]): 19.62 ± 6.80
Lactocaseibacillus rhamnosus strain HN001	2.38 ± 1.59^b pg/ml	5.53 ± 2.77^a pg/ml	alleviated the phylum alterations	improved	reversed the changes of family	decreased	marked differences	decreased the F/B ratio	20.44 ± 3.06v pg/ml	31.56 ± 9.00^b pg/ml	9.96 ± 4.10^b pg/ml	14.01 ± 5.98^a pg/ml	improved	220.28 ± 11.45^b Seconds	8.61 ± 1.63^b Metres	280.00 ± 9.58^a Seconds	3.17 ± 1.88^a Metres	230.69 ± 23.78	8.28 ± 0.81	able to reverse the effects of CUMS	TNF-α Content, Brain (TNF-α): 61.99 ± 5.17^b pg/ml; TNF-α Content, Colon (TNF-α): 79.89 ± 11.48^b pg/ml; TNF-α Content, serum-after intervention (TNF-α): 12.88 ± 4.62^b pg/ml; TNF-α Content, serum-after CUMS (TNF-α): 21.12 ± 6.40^a pg/ml; Serum Adrenocorticotropic Hormone (ACTH) Content, After intervention [5]: 3.12 ± 2.52^b pg/ml; Serum Adrenocorticotropic Hormone (ACTH) Content, After CUMS [5]: 5.85 ± 3.35^a pg/ml; Morphology of hippocampus (DG, CA1) and cortex (P2) (brain and colon tissue): CUMS-associated damage was largely reduced; Cortisol level (Cortisol): reduced closer to non-stressed control levels; Total Distance Travelled in Open Field Test, After CUMS only (x ± S) (CUMS rats [6]): 5.64 ± 2.10^a Metres; Vertical Movement (Number of Times Standing Up) in Open Field Test, After intervention (x ± S) (CUMS rats [6]): 13.57 ± 4.39^b; Vertical Movement (Number of Times Standing Up) in Open Field Test, After CUMS (x ± S) (CUMS rats [6]): 3.43 ± 2.88^a; Total Distance Travelled in Open Field Test, After CUMS + intervention (x ± S) (CUMS rats [6]): 14.62 ± 7.97^b Metres; Total Distance Travelled in Open Field Test, Base line (x ± S) (CUMS rats [6]): 23.43 ± 8.42 Metres; Vertical Movement (Number of Times Standing Up) in Open Field Test, Base line (x ± S) (CUMS rats [6]): 19.67 ± 6.26
